Source: PubChem BioAssay (NCI)
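Exposure lasted 48 hours, with cells grown in 96-well plates and compounds tested at five concentrations. At the GI50, growth is halved. At the TGI there is no net growth.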

How the values were obtained:
Test in all cases: DTP human tumour cell line panel, 48 h
786-0 renal = tested on: 786-0 renal
A498 renal = tested on: A498 renal
A549 NSCLC = tested on: A549 NSCLC
ACHN renal = tested on: ACHN renal
BT-549 breast = tested on: BT-549 breast
CAKI-1 renal = tested on: CAKI-1 renal
CCRF-CEM leukemia = tested on: CCRF-CEM leukemia
COLO 205 colon = tested on: COLO 205 colon
DU-145 prostate = tested on: DU-145 prostate
EKVX NSCLC = tested on: EKVX NSCLC
HCT-116 colon = tested on: HCT-116 colon
HCT-15 colon = tested on: HCT-15 colon
HL-60(TB) leukemia = tested on: HL-60(TB) leukemia
HOP-62 NSCLC = tested on: HOP-62 NSCLC
HT29 colon = tested on: HT29 colon
K-562 leukemia = tested on: K-562 leukemia
KM12 colon = tested on: KM12 colon
LOX IMVI melanoma = tested on: LOX IMVI melanoma
M14 melanoma = tested on: M14 melanoma
MDA-MB-231 breast = tested on: MDA-MB-231 breast
MDA-MB-435 = tested on: MDA-MB-435
MOLT-4 leukemia = tested on: MOLT-4 leukemia
NCI-H226 lung = tested on: NCI-H226 lung
NCI-H23 lung = tested on: NCI-H23 lung
NCI-H460 lung = tested on: NCI-H460 lung
NCI-H522 lung = tested on: NCI-H522 lung
NCI/ADR-RES ovarian = tested on: NCI/ADR-RES ovarian
OVCAR-3 ovarian = tested on: OVCAR-3 ovarian
OVCAR-4 ovarian = tested on: OVCAR-4 ovarian
OVCAR-5 ovarian = tested on: OVCAR-5 ovarian
OVCAR-8 ovarian = tested on: OVCAR-8 ovarian
PC-3 prostate = tested on: PC-3 prostate
RPMI-8226 leukemia = tested on: RPMI-8226 leukemia
RXF 393 renal = tested on: RXF 393 renal
SF-268 CNS = tested on: SF-268 CNS
SF-295 CNS = tested on: SF-295 CNS
SF-539 CNS = tested on: SF-539 CNS
SK-MEL-2 melanoma = tested on: SK-MEL-2 melanoma
SK-MEL-28 melanoma = tested on: SK-MEL-28 melanoma
SK-MEL-5 melanoma = tested on: SK-MEL-5 melanoma
SK-OV-3 ovarian = tested on: SK-OV-3 ovarian
SN12C renal = tested on: SN12C renal
SNB-19 CNS = tested on: SNB-19 CNS
SNB-75 CNS = tested on: SNB-75 CNS
SW-620 colon = tested on: SW-620 colon
T-47D breast = tested on: T-47D breast
U251 CNS = tested on: U251 CNS
UACC-257 melanoma = tested on: UACC-257 melanoma
UACC-62 melanoma = tested on: UACC-62 melanoma
UO-31 renal = tested on: UO-31 renal
HCC-2998 colon = tested on: HCC-2998 colon
HOP-92 NSCLC = tested on: HOP-92 NSCLC
HS 578T breast = tested on: HS 578T breast
IGROV1 ovarian = tested on: IGROV1 ovarian
MALME-3M melanoma = tested on: MALME-3M melanoma
TK-10 renal = tested on: TK-10 renal

## CSc1ccccc1C#C/C=C\C#Cc1ccccc1N
786-0 renal
  GI50: 16.3 µM
  TGI: 42.6 µM
A498 renal
  GI50: 4.18 µM
  TGI: 14.5 µM
A549 NSCLC
  GI50: 7.58 µM
  TGI: 89.6 µM
ACHN renal
  GI50: 20.1 µM
  TGI: > 100 µM
BT-549 breast
  GI50: 3.27 µM
  TGI: 9.17 µM
CAKI-1 renal
  GI50: 0.32 µM
  TGI: 1.68 µM
CCRF-CEM leukemia
  GI50: 4.98 µM
  TGI: > 100 µM
COLO 205 colon
  GI50: 13.6 µM
  TGI: 29.5 µM
DU-145 prostate
  GI50: 15.4 µM
  TGI: 45.6 µM
EKVX NSCLC
  GI50: 16.9 µM
  TGI: 57.4 µM
HCT-116 colon
  GI50: 4.58 µM
  TGI: 16.9 µM
HCT-15 colon
  GI50: 6.65 µM
  TGI: 32.5 µM
HL-60(TB) leukemia
  GI50: 3.97 µM
  TGI: > 100 µM
HOP-62 NSCLC
  GI50: 5.39 µM
  TGI: 26.3 µM
HT29 colon
  GI50: 25.1 µM
  TGI: 54.8 µM
K-562 leukemia
  GI50: 5.08 µM
  TGI: > 100 µM
KM12 colon
  GI50: 2.92 µM
  TGI: 10.4 µM
LOX IMVI melanoma
  GI50: 9.52 µM
  TGI: 25.2 µM
M14 melanoma
  GI50: 5.85 µM
  TGI: 20.1 µM
MDA-MB-231 breast
  GI50: 4.69 µM
  TGI: 22.2 µM
MDA-MB-435
  GI50: 0.982 µM
  TGI: 2.49 µM
MOLT-4 leukemia
  GI50: 8.04 µM
  TGI: > 100 µM
NCI-H226 lung
  GI50: 13.4 µM
  TGI: 52 µM
NCI-H23 lung
  GI50: 13.1 µM
  TGI: 37.3 µM
NCI-H460 lung
  GI50: 4.69 µM
  TGI: 26 µM
NCI-H522 lung
  GI50: 0.527 µM
  TGI: 32.4 µM
NCI/ADR-RES ovarian
  GI50: 4.05 µM
  TGI: 16 µM
OVCAR-3 ovarian
  GI50: 0.836 µM
  TGI: 3.98 µM
OVCAR-4 ovarian
  GI50: 29.9 µM
  TGI: 71 µM
OVCAR-5 ovarian
  GI50: 19.4 µM
  TGI: 50 µM
OVCAR-8 ovarian
  GI50: 35.8 µM
  TGI: > 100 µM
PC-3 prostate
  GI50: 14.5 µM
  TGI: > 100 µM
RPMI-8226 leukemia
  GI50: 2.72 µM
  TGI: 12.7 µM
RXF 393 renal
  GI50: 24.5 µM
  TGI: > 100 µM
SF-268 CNS
  GI50: 3.3 µM
  TGI: 25.4 µM
SF-295 CNS
  GI50: 1.83 µM
  TGI: 5.55 µM
SF-539 CNS
  GI50: 7.2 µM
  TGI: 23.6 µM
SK-MEL-2 melanoma
  GI50: 6.13 µM
  TGI: > 100 µM
SK-MEL-28 melanoma
  GI50: 24.7 µM
  TGI: 50.4 µM
SK-MEL-5 melanoma
  GI50: 3.71 µM
  TGI: 16.4 µM
SK-OV-3 ovarian
  GI50: 31.4 µM
  TGI: 96.5 µM
SN12C renal
  GI50: 8.93 µM
  TGI: 27.7 µM
SNB-19 CNS
  GI50: 22.2 µM
  TGI: > 100 µM
SNB-75 CNS
  GI50: 36.3 µM
  TGI: 81 µM
SW-620 colon
  GI50: 3.72 µM
  TGI: 14.8 µM
T-47D breast
  GI50: 17.6 µM
  TGI: 38.6 µM
U251 CNS
  GI50: 10.3 µM
  TGI: 55.3 µM
UACC-257 melanoma
  GI50: 43.5 µM
  TGI: > 100 µM
UACC-62 melanoma
  GI50: 7.83 µM
  TGI: 34.9 µM
UO-31 renal
  GI50: 17 µM
  TGI: > 100 µM

## CCOC(=O)c1c2c(n(Cc3ccccc3)c1C)C(=O)C(=O)c1ccccc1-2
786-0 renal
  TGI: 1.49 µM
A498 renal
  GI50: 2.84 µM
  TGI: 5.67 µM
A549 NSCLC
  TGI: 1.35 µM
ACHN renal
  TGI: 1.92 µM
CAKI-1 renal
  TGI: 0.984 µM
COLO 205 colon
  TGI: 1.69 µM
DU-145 prostate
  TGI: 0.972 µM
EKVX NSCLC
  TGI: 1.74 µM
HCC-2998 colon
  TGI: 1.17 µM
HCT-116 colon
  TGI: 0.692 µM
HCT-15 colon
  TGI: 2.58 µM
HL-60(TB) leukemia
  TGI: 0.0983 µM
HOP-62 NSCLC
  TGI: 0.536 µM
HOP-92 NSCLC
  TGI: 3.17 µM
HS 578T breast
  TGI: 2.19 µM
IGROV1 ovarian
  TGI: > 100 µM
K-562 leukemia
  TGI: > 100 µM
KM12 colon
  TGI: 3.02 µM
LOX IMVI melanoma
  TGI: 0.482 µM
M14 melanoma
  TGI: 0.966 µM
MALME-3M melanoma
  TGI: 0.191 µM
MDA-MB-231 breast
  TGI: 1.99 µM
MDA-MB-435
  TGI: 0.112 µM
MOLT-4 leukemia
  TGI: 1.8 µM
NCI-H226 lung
  TGI: 1.22 µM
NCI-H23 lung
  TGI: 1.07 µM
NCI-H460 lung
  TGI: 1.5 µM
NCI/ADR-RES ovarian
  TGI: > 100 µM
OVCAR-3 ovarian
  TGI: 0.167 µM
OVCAR-8 ovarian
  TGI: 1.07 µM
PC-3 prostate
  TGI: 5.14 µM
RPMI-8226 leukemia
  TGI: 0.83 µM
SF-268 CNS
  TGI: 1.27 µM
SF-295 CNS
  TGI: 0.984 µM
SF-539 CNS
  TGI: 0.521 µM
SK-MEL-28 melanoma
  TGI: 0.601 µM
SK-MEL-5 melanoma
  TGI: 0.742 µM
SK-OV-3 ovarian
  TGI: 5.76 µM
SN12C renal
  TGI: 0.333 µM
SNB-75 CNS
  TGI: 2.69 µM
SW-620 colon
  TGI: 1.15 µM
T-47D breast
  TGI: 2.19 µM
TK-10 renal
  TGI: 1.18 µM
U251 CNS
  TGI: 2.03 µM
UACC-257 melanoma
  TGI: 0.285 µM
UACC-62 melanoma
  TGI: 1.65 µM
UO-31 renal
  TGI: > 100 µM
